Measured values as given in publication PMC3877544 (Cell Death & Disease, 2013).

Biological target: voltage-dependent anion channel 1 (VDAC1) (Rattus norvegicus, UniProt Q9Z2L0)
Assay: microscale thermophoresis with fluorescently labeled purified VDAC1
Format: binding

voltage-dependent anion channel 1 (VDAC1), sequence (Q9Z2L0 2-283): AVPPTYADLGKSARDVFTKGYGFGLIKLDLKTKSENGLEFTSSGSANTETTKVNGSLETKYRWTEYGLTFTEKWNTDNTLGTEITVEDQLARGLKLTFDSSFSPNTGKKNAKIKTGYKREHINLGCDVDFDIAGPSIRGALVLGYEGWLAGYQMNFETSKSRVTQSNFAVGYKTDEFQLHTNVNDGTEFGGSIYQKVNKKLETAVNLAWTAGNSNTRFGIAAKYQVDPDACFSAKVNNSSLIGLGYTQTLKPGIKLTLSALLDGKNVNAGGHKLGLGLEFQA

SMILES: C=C(C)[C@@H]1CCC(C)=C[C@H]1c1c(O)cc(CCCCC)cc1O [CBD, cannabidiol]
- Kd: 11.2 ± 6 µM
